Measured values from US20250129055A1, “GLUCOSIDE DERIVATIVE, AND PREPARATION METHOD THEREFOR AND APPLICATION THEREOF” (BEIJING INCREASE INNOVATIVE DRUG CO., LTD., priority 2020, published 2025).

Experiments:
normal ICR mice = assay: Blood glucose level of normal mice after oral administration of glucose; type: in vivo; settings: for Blood glucose 0 min: 0 min (fasting, 1 h after dosing); for Blood glucose 30 min: 30 min after glucose 2.0 g/kg; for Blood glucose 60 min: 60 min after glucose 2.0 g/kg; for Blood glucose 120 min: 120 min after glucose 2.0 g/kg; for AUC of blood glucose: oral glucose 2.0 g/kg; for Reduction of the area under the curve (AUC) of blood glucose: vs. normal control group
Description: Test Example 2 Evaluation of the in vivo activity of the compounds of the present invention: the effect on the blood glucose level of normal mice after oral administration of glucose
ICR mice (male, 18-20 g), purchased from Beijing Vital River Laboratories Co., Ltd., were fed adaptively for 4 days, and randomly divided into 4 groups, namely normal control group, positive control group, and two groups of test compounds, with 8 mice in each group.
The aforementioned stock solutions were diluted to appropriate concentrations with double distilled water.
The mice were fasted overnight. […] After 1 h, blood was collected at 0 min (fasting), and then mice in each group were administered with glucose (2.0 g/kg) solution by gavage. Blood was collected at 30 min, 60 min, and 120 min after glucose administration. The blood glucose level was measured using glucose oxidase-peroxidase method, and the area under the blood glucose curve was calculated.
The data were expressed as mean±SD. The comparison between multiple groups was performed by one-way analysis of variance, and the comparison between two groups was performed by Dunnett's t test. Statistical graphing was performed using Graphpad Prism software.

Alloxan diabetic mice = assay: Efficacy in Alloxan diabetes model mice; type: in vivo; settings: for HbA1c: 32nd day; for Concentration of blood glucose 2 h: 2 h after administration; for Concentration of blood glucose 4 h: 4 h after administration; for Concentration of blood glucose 8 h: 8 h after administration; for Concentration of blood glucose 24 h: 24 h after administration; for Concentration of blood glucose 0 h: before administration; for Concentration of blood glucose (random): random blood glucose on the 28th day
Description: Test Example 3 Research on efficacy of the compounds of the present invention in in vivo anti-Alloxan diabetes model mice
Alloxan diabetes mice were used. Normal ICR mice (male, 22-24 g) were randomly divided into groups including normal group, model group (con), positive control group and test compound groups with four different doses (n=11), and the mice without injection of Alloxan were in a normal control group (n=10).
Mice were administered with drugs by gavage.
Single administration: Mice were fasted for 3 h, and then the fasting blood (0 min) was collected. Then the mice in each group were administered with drugs by gavage. After 1 h, they were administered with a glucose ([…]) solution. Blood was collected at 30 min, 60 min, 120 min, and 180 min after the glucose administration. The blood glucose level was measured using glucose oxidase-peroxidase method, and the area under the blood glucose curve was calculated.
On the 6th day of continuous administration, under the condition of no fasting, blood samples were collected from mice before administration (0 h), 1 h, 2 h, 4 h, 8 h and 24 h after administration to measure blood glucose.
On the 9th day of continuous administration, the mice were fasted for 1 h and then administered with drugs by gavage. An oral glucose tolerance test (OGTT) was performed 1 h after administration.
On the 16th day of continuous administration, under the condition of no fasting, urine samples were collected from mice 1 h after administration to measure the concentration of urine glucose.
On the 22nd day of continuous administration, the mice were fasted for 1 h and then administered with drugs by gavage, and blood samples were collected to measure the fasting blood glucose 1 h after administration.
On the 28th day of continuous administration, under the condition of no fasting, blood samples were collected from mice 1 h after administration to measure the random blood glucose.
On the 32nd day of continuous administration, under the condition of no fasting, blood samples were collected from mice to measure glycosylated hemoglobin (HbA1c).
The data were expressed as mean±SEM (n=10-11). The comparison between multiple groups was performed by one-way analysis of variance, and the comparison between two groups was performed by Dunnett's t test. Statistical graphing was performed using Graphpad Prism software.

[1] = 0.25 mg/kg, OGTT on the 9th day
[2] = 0.25 mg/kg, non-fasting, 6th day
[3] = 0.5 mg/kg, non-fasting, 6th day
[4] = 1.0 mg/kg, non-fasting, 6th day
[5] = 2.0 mg/kg, non-fasting, 6th day

## CS[C@H]1O[C@@H](c2ccc(C)c(Cc3ccc4c(c3)OCCO4)c2)[C@H](O)[C@@H](O)[C@@H]1O (stereo in doubt) [Compound 2, 2-[3-(2,3-dihydro-1,4-benzodioxin-6-ylmethyl)-4-methylphenyl]-6-(methylthio)oxane-3,4,5-triol]
Normal ICR mice; 2 mg/kg by gavage
  Blood glucose 0 min: 75.9 ± 6.7 mg/dL
  Blood glucose 30 min: 207.8 ± 13.6 mg/dL
  Blood glucose 60 min: 119.3 ± 12.5 mg/dL
  Blood glucose 120 min: 73.0 ± 11.4 mg/dL
  AUC of blood glucose: 248.8 ± 18.0 mg·h/dL
Normal ICR mice; 2 mg/kg
  Reduction of the area under the curve (AUC) of blood glucose: 37.4%
Normal ICR mice; 4 mg/kg by gavage
  Blood glucose 0 min: 63.6 ± 8.3 mg/dL
  Blood glucose 30 min: 189.5 ± 14.3 mg/dL
  Blood glucose 60 min: 103.2 ± 5.1 mg/dL
  Blood glucose 120 min: 78.2 ± 13.9 mg/dL
  AUC of blood glucose: 227.1 ± 13.1 mg·h/dL
Normal ICR mice; 4 mg/kg
  Reduction of the area under the curve (AUC) of blood glucose: 42.9%
Alloxan diabetic mice; 0.25 mg/kg
  Concentration of fasting blood glucose, the 9th day: 307.7 ± 23.1 mg/dL
  Concentration of fasting blood glucose, the 22nd day: 305.6 ± 16.5 mg/dL
  HbA1c: 7.2 ± 0.4%
  Concentration of blood glucose (random): 491.1 ± 26.5 mg/dL
Alloxan diabetic mice; [1]
  AUC of blood glucose: 541.5 ± 22.8 mg·h/dL
  Concentration of blood glucose 0 min: 307.7 ± 23.1 mg/dL
  Concentration of blood glucose 30 min: 303.0 ± 8.6 mg/dL
  Concentration of blood glucose 60 min: 268.5 ± 13.5 mg/dL
  Concentration of blood glucose 120 min: 223.4 ± 11.6 mg/dL
Alloxan diabetic mice; 0.25 mg/kg, non-fasting, 6th day, 0-24 h
  AUC of blood glucose: 12051 ± 437.8 mg·h/dL
Alloxan diabetic mice; 0.25 mg/kg, non-fasting, 6th day, 1 h after administration
  Concentration of blood glucose 1 h: 458.4 ± 25.2 mg/dL
Alloxan diabetic mice; [2]
  Concentration of blood glucose 2 h: 430.7 ± 31.3 mg/dL
  Concentration of blood glucose 4 h: 404.3 ± 33.8 mg/dL
  Concentration of blood glucose 8 h: 478.2 ± 23.3 mg/dL
  Concentration of blood glucose 24 h: 585.3 ± 17.9 mg/dL
  Concentration of blood glucose 0 h: 540.1 ± 20.1 mg/dL
Alloxan diabetic mice; 0.5 mg/kg
  Concentration of fasting blood glucose, the 9th day: 249.7 ± 14.7 mg/dL
  Concentration of fasting blood glucose, the 22nd day: 236.0 ± 13.7 mg/dL
  HbA1c: 6.1 ± 0.4 %
  Concentration of blood glucose (random): 437.9 ± 23.9 mg/dL
Alloxan diabetic mice; 0.5 mg/kg, OGTT on the 9th day
  AUC of blood glucose: 468.3 ± 18.1 mg·h/dL
  Concentration of blood glucose 0 min: 249.7 ± 14.7 mg/dL
  Concentration of blood glucose 30 min: 290.3 ± 13.0 mg/dL
  Concentration of blood glucose 60 min: 231.0 ± 10.1 mg/dL
  Concentration of blood glucose 120 min: 175.0 ± 12.0 mg/dL
Alloxan diabetic mice; 0.5 mg/kg, non-fasting, 6th day, 0-24 h
  AUC of blood glucose: 12059 ± 372.3 mg·h/dL
Alloxan diabetic mice; 0.5 mg/kg, non-fasting, 6th day, 1 h after administration
  Concentration of blood glucose 1 h: 488.6 ± 15.9 mg/dL
Alloxan diabetic mice; [3]
  Concentration of blood glucose 2 h: 474.7 ± 18.1 mg/dL
  Concentration of blood glucose 4 h: 386.0 ± 21.8 mg/dL
  Concentration of blood glucose 8 h: 473.9 ± 28.2 mg/dL
  Concentration of blood glucose 24 h: 585.6 ± 15.0 mg/dL
  Concentration of blood glucose 0 h: 551.9 ± 18.2 mg/dL
Alloxan diabetic mice; 1.0 mg/kg
  Concentration of fasting blood glucose, the 9th day: 201.2 ± 11.4 mg/dL
  Concentration of fasting blood glucose, the 22nd day: 224.4 ± 17.6 mg/dL
  HbA1c: 5.9 ± 0.6 %
  Concentration of blood glucose (random): 395.8 ± 24.1 mg/dL
Alloxan diabetic mice; 1.0 mg/kg, OGTT on the 9th day
  AUC of blood glucose: 410.6 ± 15.6 mg·h/dL
  Concentration of blood glucose 0 min: 201.2 ± 11.4 mg/dL
  Concentration of blood glucose 30 min: 253.9 ± 7.7 mg/dL
  Concentration of blood glucose 60 min: 205.3 ± 9.8 mg/dL
  Concentration of blood glucose 120 min: 158.6 ± 8.8 mg/dL
Alloxan diabetic mice; 1.0 mg/kg, non-fasting, 6th day, 0-24 h
  AUC of blood glucose: 10310 ± 308.4 mg·h/dL
Alloxan diabetic mice; 1.0 mg/kg, non-fasting, 6th day, 1 h after administration
  Concentration of blood glucose 1 h: 417.1 ± 14.8 mg/dL
Alloxan diabetic mice; [4]
  Concentration of blood glucose 2 h: 409.8 ± 16.7 mg/dL
  Concentration of blood glucose 4 h: 323.8 ± 16.1 mg/dL
  Concentration of blood glucose 8 h: 368.3 ± 19.4 mg/dL
  Concentration of blood glucose 24 h: 550.3 ± 17.0 mg/dL
  Concentration of blood glucose 0 h: 444.1 ± 19.2 mg/dL
Alloxan diabetic mice; 2.0 mg/kg
  Concentration of fasting blood glucose, the 9th day: 184.9 ± 18.3 mg/dL
  Concentration of fasting blood glucose, the 22nd day: 211.9 ± 17.8 mg/dL
  HbA1c: 6.0 ± 0.4 %
  Concentration of blood glucose (random): 391.2 ± 26.0 mg/dL
Alloxan diabetic mice; 2.0 mg/kg, OGTT on the 9th day
  AUC of blood glucose: 393.9 ± 25.6 mg·h/dL
  Concentration of blood glucose 0 min: 184.9 ± 18.3 mg/dL
  Concentration of blood glucose 30 min: 246.0 ± 11.7 mg/dL
  Concentration of blood glucose 60 min: 205.1 ± 12.6 mg/dL
  Concentration of blood glucose 120 min: 141.7 ± 14.6 mg/dL
Alloxan diabetic mice; 2.0 mg/kg, non-fasting, 6th day, 0-24 h
  AUC of blood glucose: 11326 ± 225.5 mg·h/dL
Alloxan diabetic mice; 2.0 mg/kg, non-fasting, 6th day, 1 h after administration
  Concentration of blood glucose 1 h: 414.1 ± 18.3 mg/dL
Alloxan diabetic mice; [5]
  Concentration of blood glucose 2 h: 460.2 ± 15.0 mg/dL
  Concentration of blood glucose 4 h: 390.6 ± 28.2 mg/dL
  Concentration of blood glucose 8 h: 434.0 ± 18.8 mg/dL
  Concentration of blood glucose 24 h: 559.3 ± 10.4 mg/dL
  Concentration of blood glucose 0 h: 473.0 ± 16.2 mg/dL
Alloxan diabetic mice; 6th day, dapagliflozin 2.0 mg/kg, Compound 2 0.25-2.0 mg/kg
  Duration of hypoglycemic effect: still had a good hypoglycemic effect after 8-24 h
Alloxan diabetic mice; continuous administration for 16 days, 0.25-2.0 mg/kg, non-fasting, 1 h after administration
  Concentration of urine glucose: significantly increase
Alloxan diabetic mice; continuous administration for 22 days, 0.25-2.0 mg/kg
  Effect on body weight, food intake and water intake: no obvious effect
Alloxan diabetic mice; single administration, 0.25, 0.5, 1.0 and 2.0 mg/kg
  Blood glucose level and AUC after glucose administration: significantly lower
